Each compound was assayed against human Nav1.8 (Homo sapiens (Human), UniProt Q9Y5Y9) (assay: Nav1.8 Qube® Assay (automated 384-well patch-clamp)). Conditions: human Nav1.8 channels stably expressed in HEK 293 cells.
Sequence of human Nav1.8 (Q9Y5Y9 whole entry): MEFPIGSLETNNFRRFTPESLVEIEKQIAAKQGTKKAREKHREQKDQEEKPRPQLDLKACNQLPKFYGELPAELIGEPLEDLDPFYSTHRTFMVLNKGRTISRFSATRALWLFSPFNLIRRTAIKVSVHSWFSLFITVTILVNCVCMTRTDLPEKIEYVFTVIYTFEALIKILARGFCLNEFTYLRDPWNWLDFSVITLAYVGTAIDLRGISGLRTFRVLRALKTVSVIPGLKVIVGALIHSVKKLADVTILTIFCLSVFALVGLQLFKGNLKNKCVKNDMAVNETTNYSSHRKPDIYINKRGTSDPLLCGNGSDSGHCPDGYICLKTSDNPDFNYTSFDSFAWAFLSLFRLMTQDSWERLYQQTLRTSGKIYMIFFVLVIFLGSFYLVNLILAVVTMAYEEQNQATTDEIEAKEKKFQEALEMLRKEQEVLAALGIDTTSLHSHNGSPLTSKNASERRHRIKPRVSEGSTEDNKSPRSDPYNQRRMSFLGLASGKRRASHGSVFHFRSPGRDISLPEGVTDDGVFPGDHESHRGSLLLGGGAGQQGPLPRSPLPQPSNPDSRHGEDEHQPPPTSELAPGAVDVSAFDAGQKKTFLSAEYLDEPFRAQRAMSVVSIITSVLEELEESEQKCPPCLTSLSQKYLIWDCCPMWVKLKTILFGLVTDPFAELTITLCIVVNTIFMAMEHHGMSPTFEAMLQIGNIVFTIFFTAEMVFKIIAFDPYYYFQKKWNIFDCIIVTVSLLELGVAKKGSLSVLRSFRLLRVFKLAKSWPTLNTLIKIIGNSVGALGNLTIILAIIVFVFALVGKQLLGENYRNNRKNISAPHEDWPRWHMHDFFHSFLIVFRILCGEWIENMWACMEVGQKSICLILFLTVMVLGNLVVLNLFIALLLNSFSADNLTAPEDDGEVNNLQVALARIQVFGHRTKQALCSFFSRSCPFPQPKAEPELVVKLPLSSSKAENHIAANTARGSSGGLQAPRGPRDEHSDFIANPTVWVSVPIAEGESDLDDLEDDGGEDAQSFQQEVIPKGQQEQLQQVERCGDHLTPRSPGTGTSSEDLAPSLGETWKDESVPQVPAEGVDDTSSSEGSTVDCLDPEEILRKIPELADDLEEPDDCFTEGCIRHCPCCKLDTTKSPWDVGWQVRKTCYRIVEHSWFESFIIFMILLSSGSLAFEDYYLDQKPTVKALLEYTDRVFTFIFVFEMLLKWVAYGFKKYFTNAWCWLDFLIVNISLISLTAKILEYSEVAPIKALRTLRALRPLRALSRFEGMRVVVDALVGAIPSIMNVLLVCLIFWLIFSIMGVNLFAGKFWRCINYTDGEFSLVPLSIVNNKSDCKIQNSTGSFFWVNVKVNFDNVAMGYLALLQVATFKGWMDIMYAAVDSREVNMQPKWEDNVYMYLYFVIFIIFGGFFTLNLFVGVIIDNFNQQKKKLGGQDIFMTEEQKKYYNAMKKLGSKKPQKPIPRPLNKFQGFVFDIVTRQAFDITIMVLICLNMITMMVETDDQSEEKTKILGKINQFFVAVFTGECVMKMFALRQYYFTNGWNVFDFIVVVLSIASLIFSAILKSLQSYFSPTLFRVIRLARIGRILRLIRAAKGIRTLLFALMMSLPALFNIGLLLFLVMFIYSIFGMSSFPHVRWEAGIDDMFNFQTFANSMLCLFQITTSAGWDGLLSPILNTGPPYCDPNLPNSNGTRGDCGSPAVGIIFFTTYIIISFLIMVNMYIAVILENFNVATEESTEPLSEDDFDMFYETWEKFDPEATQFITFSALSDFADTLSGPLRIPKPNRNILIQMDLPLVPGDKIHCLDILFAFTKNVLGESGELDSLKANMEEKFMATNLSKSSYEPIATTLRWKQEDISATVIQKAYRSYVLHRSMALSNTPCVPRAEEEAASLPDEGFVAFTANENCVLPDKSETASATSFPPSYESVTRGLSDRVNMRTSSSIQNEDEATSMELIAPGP
Assay type: cell-based
Text: Qube® Assay Experimental Procedure
Work on `O=C1NC[C@@H](C(=O)NC(c2ccc(OC(F)(F)F)c(Cl)c2)c2cnn(C(F)(F)F)c2)O1` (single isomer, unassigned) [Example 53B, (S)-N-((R or S)-(3-chloro-4-(trifluoro-methoxy)phenyl)(1-(trifluoromethyl)-1H-pyrazol-4-yl)methyl)-2-oxooxazolidine-5-carboxamide] yielded an IC50 of 1.2 nM. With `O=C1NC[C@@H](C(=O)NC(c2cncc(Cl)c2)c2ccc(F)c(Cl)c2)O1` (single isomer, unassigned) [Example 13A, (S)-N-((R or S)-(3-chloro-4-fluorophenyl)(5-chloropyridin-3-yl)methyl)-2-oxooxazolidine-5-carboxamide] the IC50 was 573 nM. In the case of `O=C1NC[C@@H](C(=O)NC(c2ccc(F)c(Cl)c2)c2ccn(C(F)F)n2)O1` (single isomer, unassigned) [Example 60B, (S)-N-((R or S)-(3-chloro-4-fluorophenyl)(1-(difluoromethyl)-1H-pyrazol-3-yl)methyl)-2-oxooxazolidine-5-carboxamide], the IC50 is reported as 124 nM. For `O=C1NC[C@@H](C(=O)NC(c2ccc(F)c(Cl)c2)c2ccc(F)c(C(F)(F)F)n2)O1` (stereo partly drawn) [Example 38, (5S)-N-((3-chloro-4-fluorophenyl)(5-fluoro-6-(trifluoromethyl)pyridin-2-yl)methyl)-2-oxooxazolidine-5-carboxamide], the IC50 was 2.1 nM. `O=C1NC[C@@H](C(=O)NC(c2ccc(Cl)cc2)c2ccnc(C(F)(F)F)n2)O1` (single isomer, unassigned) [Example 11B, (S)-N-((R or S)-(4-chlorophenyl)(2-(trifluoromethyl)pyrimidin-4-yl)methyl)-2-oxooxazolidine-5-carboxamide] showed an IC50 of 399 nM. Work on `O=C1NC[C@@H](C(=O)NC(c2ccc(F)c(Cl)c2)c2ccc(F)c(OCC(F)(F)F)n2)O1` (single isomer, unassigned) [Example 1A, (S)—N—((R or S)-(3-chloro-4-fluorophenyl)(5-fluoro-6-(2,2,2-trifluoroethoxy)pyridin-2-yl)methyl)-2-oxooxazolidine-5-carboxamide] yielded an IC50 of 46 nM. `O=C1NC[C@@H](C(=O)NC(COc2ccc(F)c(Cl)c2)c2ccc(F)c(Cl)c2)O1` (single isomer, unassigned) [Example 8B, (S)—N—((R or S)-2-(3-chloro-4-fluorophenoxy)-1-(3-chloro-4-fluorophenyl)ethyl)-2-oxooxazolidine-5-carboxamide] showed an IC50 of 4.6 nM. `O=C1NC[C@@H](C(=O)NC(c2ccc(Cl)cc2)c2cccc3ccccc23)O1` (stereo partly drawn) [Example 30, (5S)-N-((4-chlorophenyl) (naphthalen-1-yl)methyl)-2-oxooxazolidine-5-carboxamide] was tested, and the IC50 was 2.4 nM. `O=C1NC[C@@H](C(=O)NC(COc2ccc(C(F)(F)F)nc2)c2ccc(F)c(Cl)c2)O1` (stereo partly drawn) [Example 66, (5S)-N-(1-(3-chloro-4-fluorophenyl)-2-((6-(trifluoro-methyl)pyridin-3-yl)oxy)ethyl)-2-oxooxazolidine-5-carboxamide] showed an IC50 of 268 nM. With `O=C1NC[C@@H](C(=O)NC(c2ccc(F)c(Cl)c2F)[C@@H]2CC[C@@H](C(F)(F)F)CO2)O1` (single isomer, unassigned) [Example 9C] the IC50 was 356 nM.
